Measurements reported in ChEMBL document CHEMBL4368927, “A review on flavones targeting serine/threonine protein kinases for potential anticancer drugs” (Bioorg Med Chem, 2019).

How the values were obtained:
Protein kinase C (PKC) = assay: Inhibition of PKC in rat brain homogenate using FKKSFKL-NH2 as substrate preincubated for 10 mins followed by substrate addition and measured after 5 mins in presence of [gamma-32P]ATP by liquid scintillation counting analysis; type: tissue-based
[1] = molecular target: Protein kinase C (PKC) (Rattus norvegicus) (UniProt P05696+P68403+P09216+P63319+P09215+Q64617+Q9WTQ0+P09217); assay: Inhibition of PKC in rat brain homogenate at 50 uM using FKKSFKL-NH2 as substrate preincubated for 10 mins followed by substrate addition and measured after 5 mins in presence of [gamma-32P]ATP by liquid scintillation counting analysis relative to control; type: tissue-based
CDK7/Cyclin H/MNAT1 = CDK7/Cyclin H/MNAT1 (Homo sapiens, UniProt P50613); assay: Inhibition of recombinant human full length C-terminal His6-tagged and N-terminal GST-tagged CDK7/cyclinH/MAT1 expressed in baculovirus Sf21 insect cells after 40 mins in presence of [gamma-32P]ATP by scintillation counting analysis
HT-29 = assay: Antiproliferative activity against human HT-29 cells assessed as reduction in [3H]-thymidine incorporation after 48 hrs by liquid scintillation assay; type: functional, cell-based
[2] = molecular target: Cyclin-dependent kinase 2/cyclin E1 (Homo sapiens, UniProt P24941); assay: Inhibition of human CDK2/cyclin E expressed in baculovirus expression system after 30 mins in presence of [gamma-33P]ATP by scintillation counting analysis
[3] = molecular target: Cyclin-dependent kinase 1 (Homo sapiens, UniProt P06493); assay: Inhibition of human CDK1
[4] = molecular target: Cyclin-dependent kinase 6 (Homo sapiens, UniProt Q00534); assay: Inhibition of human CDK6
[5] = molecular target: Cyclin-dependent kinase 4 (Homo sapiens, UniProt P11802); assay: Inhibition of human CDK4
[6] = Inhibition of CDK6/cyclin D (unknown origin); set-up: species or system Homo sapiens
[7] = Inhibition of protein kinase A (unknown origin); set-up: species or system Homo sapiens
[8] = molecular target: Mitogen-activated protein kinase 3 (Homo sapiens, UniProt P27361); assay: Inhibition of Erk-1 (unknown origin)
[9] = molecular target: Proto-oncogene tyrosine-protein kinase Src (Homo sapiens, UniProt P12931); assay: Inhibition of pp60 src (unknown origin)
[10] = molecular target: Serine/threonine-protein kinase pim-1 (Homo sapiens) (UniProt P11309)
Chain of Serine/threonine-protein kinase pim-1 (Homo sapiens) (P11309 whole entry, looked up): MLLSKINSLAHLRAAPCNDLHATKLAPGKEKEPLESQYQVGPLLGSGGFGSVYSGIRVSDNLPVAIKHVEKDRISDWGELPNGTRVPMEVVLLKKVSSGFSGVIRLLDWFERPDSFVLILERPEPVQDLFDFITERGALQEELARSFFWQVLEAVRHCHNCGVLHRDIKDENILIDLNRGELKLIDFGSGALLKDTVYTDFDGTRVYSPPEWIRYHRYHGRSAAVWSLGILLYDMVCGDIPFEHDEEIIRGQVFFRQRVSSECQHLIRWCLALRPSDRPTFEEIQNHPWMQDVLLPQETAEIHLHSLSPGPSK
Description: Inhibition of PIM1 in human RWPE2 cells assessed as inhibition of cell growth

Chain of Mitogen-activated protein kinase 3 (P27361 whole entry): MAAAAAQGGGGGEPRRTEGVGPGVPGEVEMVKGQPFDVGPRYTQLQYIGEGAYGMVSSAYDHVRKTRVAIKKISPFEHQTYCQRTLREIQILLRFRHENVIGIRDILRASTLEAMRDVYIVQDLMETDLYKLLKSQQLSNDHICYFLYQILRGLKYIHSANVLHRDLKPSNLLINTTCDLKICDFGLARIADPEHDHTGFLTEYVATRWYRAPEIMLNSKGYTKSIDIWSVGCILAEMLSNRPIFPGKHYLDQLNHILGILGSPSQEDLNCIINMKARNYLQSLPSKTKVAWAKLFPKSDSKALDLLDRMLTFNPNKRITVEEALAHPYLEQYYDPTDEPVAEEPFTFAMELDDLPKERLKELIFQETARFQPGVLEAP
Chain of Cyclin-dependent kinase 4 (P11802 whole entry): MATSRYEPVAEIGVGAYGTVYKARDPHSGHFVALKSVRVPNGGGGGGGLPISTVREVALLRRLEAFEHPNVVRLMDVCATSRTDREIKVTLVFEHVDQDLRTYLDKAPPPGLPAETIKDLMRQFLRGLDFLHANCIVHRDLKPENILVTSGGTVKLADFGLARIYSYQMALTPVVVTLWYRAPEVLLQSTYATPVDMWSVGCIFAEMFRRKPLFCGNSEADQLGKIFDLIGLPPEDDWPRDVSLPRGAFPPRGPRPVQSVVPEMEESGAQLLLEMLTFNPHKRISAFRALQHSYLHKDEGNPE
Chain of Proto-oncogene tyrosine-protein kinase Src (P12931 2-536 limits assumed): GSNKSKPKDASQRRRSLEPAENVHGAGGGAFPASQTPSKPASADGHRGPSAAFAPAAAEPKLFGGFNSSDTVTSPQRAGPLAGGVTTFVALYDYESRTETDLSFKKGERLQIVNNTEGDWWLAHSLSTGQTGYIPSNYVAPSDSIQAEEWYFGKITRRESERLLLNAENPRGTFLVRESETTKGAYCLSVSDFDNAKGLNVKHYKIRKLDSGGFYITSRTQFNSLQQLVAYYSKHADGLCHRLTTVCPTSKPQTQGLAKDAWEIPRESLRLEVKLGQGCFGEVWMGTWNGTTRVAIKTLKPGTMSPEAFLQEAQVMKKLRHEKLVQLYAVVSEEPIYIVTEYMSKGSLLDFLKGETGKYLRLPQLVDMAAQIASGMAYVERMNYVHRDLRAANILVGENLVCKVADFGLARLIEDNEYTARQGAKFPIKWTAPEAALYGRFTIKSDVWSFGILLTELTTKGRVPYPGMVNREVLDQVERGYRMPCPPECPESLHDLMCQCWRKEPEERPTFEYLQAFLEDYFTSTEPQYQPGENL
Chain of Cyclin-dependent kinase 6 (Q00534 whole entry): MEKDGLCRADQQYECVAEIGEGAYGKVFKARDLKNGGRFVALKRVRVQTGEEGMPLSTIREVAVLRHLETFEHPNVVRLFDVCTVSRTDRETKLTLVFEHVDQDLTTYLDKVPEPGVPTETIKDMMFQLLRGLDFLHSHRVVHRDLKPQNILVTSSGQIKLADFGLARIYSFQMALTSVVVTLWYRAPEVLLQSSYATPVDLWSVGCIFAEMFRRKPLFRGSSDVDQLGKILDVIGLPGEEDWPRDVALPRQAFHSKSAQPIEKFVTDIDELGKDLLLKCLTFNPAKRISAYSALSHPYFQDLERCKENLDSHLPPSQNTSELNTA
Chain of CDK7/Cyclin H/MNAT1 (P51946 whole entry): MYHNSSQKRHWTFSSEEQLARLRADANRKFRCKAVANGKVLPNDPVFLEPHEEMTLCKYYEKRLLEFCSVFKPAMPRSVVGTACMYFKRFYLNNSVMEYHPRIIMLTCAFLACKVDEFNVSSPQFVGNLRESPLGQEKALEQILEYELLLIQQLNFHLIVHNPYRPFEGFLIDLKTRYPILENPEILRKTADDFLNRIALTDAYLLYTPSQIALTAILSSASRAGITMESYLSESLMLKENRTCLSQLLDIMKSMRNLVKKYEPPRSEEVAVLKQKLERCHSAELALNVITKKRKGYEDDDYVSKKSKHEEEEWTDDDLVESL
Chain of CDK7/Cyclin H/MNAT1 (P50613 whole entry): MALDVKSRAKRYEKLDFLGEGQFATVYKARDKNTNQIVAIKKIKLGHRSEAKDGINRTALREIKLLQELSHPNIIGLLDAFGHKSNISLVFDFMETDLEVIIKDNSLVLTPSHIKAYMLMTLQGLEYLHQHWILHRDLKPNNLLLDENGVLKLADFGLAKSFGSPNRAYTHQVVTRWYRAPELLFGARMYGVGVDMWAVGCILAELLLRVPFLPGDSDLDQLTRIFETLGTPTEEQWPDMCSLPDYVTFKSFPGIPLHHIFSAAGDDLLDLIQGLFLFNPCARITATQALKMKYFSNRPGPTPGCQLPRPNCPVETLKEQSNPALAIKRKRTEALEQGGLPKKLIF
Chain of CDK7/Cyclin H/MNAT1 (P51948 whole entry, further chain): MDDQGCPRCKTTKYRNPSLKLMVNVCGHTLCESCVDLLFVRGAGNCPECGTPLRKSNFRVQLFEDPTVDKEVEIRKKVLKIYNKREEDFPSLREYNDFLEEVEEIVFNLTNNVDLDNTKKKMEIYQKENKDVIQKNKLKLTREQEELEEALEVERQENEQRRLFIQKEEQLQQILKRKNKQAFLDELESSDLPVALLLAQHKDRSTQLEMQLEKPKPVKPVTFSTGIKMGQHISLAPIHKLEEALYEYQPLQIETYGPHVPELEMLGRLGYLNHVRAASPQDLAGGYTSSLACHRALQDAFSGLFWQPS
Chain of Cyclin-dependent kinase 1 (P06493 whole entry): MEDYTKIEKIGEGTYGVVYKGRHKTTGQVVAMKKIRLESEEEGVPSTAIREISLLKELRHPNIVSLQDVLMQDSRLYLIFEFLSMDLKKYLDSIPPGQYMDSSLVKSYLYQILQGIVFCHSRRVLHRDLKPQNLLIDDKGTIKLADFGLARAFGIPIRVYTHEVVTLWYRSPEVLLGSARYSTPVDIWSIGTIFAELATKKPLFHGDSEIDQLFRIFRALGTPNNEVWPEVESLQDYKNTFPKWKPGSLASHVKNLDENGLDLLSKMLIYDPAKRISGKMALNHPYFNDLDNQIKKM

SMILES: O=c1c(O)c(-c2cc(O)c(O)c(O)c2)oc2cc(O)cc(O)c12 [MYRICETIN]
- IC50 (Protein kinase C (PKC)): 7.8 µM

SMILES: O=c1c(O)c(-c2ccc(O)c(O)c2)oc2cc(O)ccc12
- inhibition [1]: 85%

SMILES: COc1c(O)cc(O)c2c(=O)cc(-c3ccccc3)oc12 [WOGONIN]
- IC50 (CDK7/Cyclin H/MNAT1): 12.3 µM

SMILES: O=c1c(O)c(-c2ccc(O)c(O)c2)oc2cc(O)cc(O)c12
- inhibition [1]: 64%

SMILES: CN1CC[C@@H](c2c(O)cc(O)c3c(=O)cc(-c4ccc([N+](=O)[O-])cc4Cl)oc23)[C@@H]1CO
- IC50 (HT-29): 1.2 µM
- IC50 [2]: 1.7 µM

SMILES: CN1CC[C@@H](c2c(O)cc(O)c3c(=O)cc(-c4ccc(C(F)(F)F)cc4Cl)oc23)[C@@H]1CO [VORUCICLIB]
- IC50 [3]: < 0.1 µM
- IC50 [4]: < 0.1 µM
- IC50 [5]: < 0.1 µM

SMILES: CN1CC[C@@H](c2c(O)cc(O)c3c(=O)cc(-c4ccccc4Cl)oc23)[C@@H]1CO
- IC50 (HT-29): 0.58 µM
- IC50 [2]: 2.8 µM

SMILES: O=c1cc(-c2ccc(O)c(O)c2)oc2cc(O)cc(O)c12
- inhibition [1]: 70%

SMILES: CN1CC[C@H](c2c(O)cc(O)c3c(=O)cc(-c4ccccc4Cl)oc23)[C@H](O)C1 [ALVOCIDIB]
- IC50 [6]: 0.06 µM
- IC50 [7]: 122 to 145 µM
- IC50 [8]: 16 µM
- IC50 [9]: 34 µM

SMILES: O=c1c(O)c(-c2ccc(O)c(O)c2)oc2cc(O)c(O)c(O)c12
- ED50 [10]: 5.5 µM

SMILES: CN1CC[C@H](c2c(O)cc(O)c3c(=O)cc(-c4ccccc4Cl)oc23)[C@H]1CO
- IC50 (HT-29): 17.9 µM
- IC50 [2]: 21 µM
